Laboratory results as given in patent US5376671A, “Propenoyl-imidazole derivatives” (Bayer Aktiengesellschaft, priority 1992, dated 1994).
≈ marks a conversion by molar mass, not a printed value.

Columns and labels:
[1] = system: isolated rabbit aorta (contraction induced by angiotensin II); experiment: Inhibition of vascular contraction in isolated rabbit aorta rings in vitro, contractions induced by angiotensin II; details: based on the 3rd (submaximal) agonist concentration
Procedure: Rabbits of both sexes are stunned by a blow to the neck and bled out, or in some cases anesthetised with Nembutal (about 60-80 mg/kg i.v.) and sacrificed by opening the thorax. The thorax aorta is taken out, freed from adhering connective tissue, divided into 1.5 mm wide ring segments and individually transferred under an initial loading of about 3.5 g to 10 ml organ baths containing 95% 02 /5% CO2 -aerated Krebs-Henseleit nutrient solution temperature-controlled at 37° C. of the following composition: 119 mmol/l of NaCl: 2.5 mmol/l of CaCl2 ×2 H2 O; 1.2 mmol/l of KH2 PO4; 10 mmol/l of glucose; 4.8 mmol/l of KCl; 1.4 mmol/l of MgSO4 ×7 H2 O and 25 mmol/l of NaHCO3.
The contractions are measured isometrically by Statham UC2 cells by means of bridge amplifiers (ifd Mulheim or DSM Aalen) and digitalised and analysed by means of A/D converters (System 570, Keithley Munich). Agohist dose response curves (DRC) were plotted hourly. With each DRC, 3 or 4 individual concentrations are applied to the baths at an interval of 4 min. After completion of the DRC and subsequent washing-out cycles (16 times, in each case about 5 sec/min with the abovementioned nutrient solution), a 28-minute resting or incubation phase is added in the course of which the contractions usually reach the starting value again.
The height of the 3rd DRC in the normal case is used as a reference quantity for the evaluation of the test substance to be investigated in further passages, which is applied to the baths in the following DRCs in increasing dosage in each case at the start of the incubation time. In this way, each aorta ring is always stimulated for the whole day with the same agohist.
To calculate the IC50 (concentration at which the substance to be investigated causes a 50% inhibition), the effect is in each case based on the 3rd=submaximal agonist concentration.

[2] = target: T1, type 2 angiotensin II receptor (AT2) (Bos taurus, UniProt G5E6F7); experiment: Interaction with the type 2 angiotensin II receptor (AT2) on membrane fractions of bovine cerebellum, 125I-angiotensin II binding; details: bovine cerebellum membranes; 125I-angiotensin II about 0.1 nM; 60 min, 37° C.
T1 construct: membrane fractions of bovine cerebellum; purchased NEN DuPont NED-001; host or cells: bovine cerebellum membrane fractions
T1 sequence (G5E6F7 1-362): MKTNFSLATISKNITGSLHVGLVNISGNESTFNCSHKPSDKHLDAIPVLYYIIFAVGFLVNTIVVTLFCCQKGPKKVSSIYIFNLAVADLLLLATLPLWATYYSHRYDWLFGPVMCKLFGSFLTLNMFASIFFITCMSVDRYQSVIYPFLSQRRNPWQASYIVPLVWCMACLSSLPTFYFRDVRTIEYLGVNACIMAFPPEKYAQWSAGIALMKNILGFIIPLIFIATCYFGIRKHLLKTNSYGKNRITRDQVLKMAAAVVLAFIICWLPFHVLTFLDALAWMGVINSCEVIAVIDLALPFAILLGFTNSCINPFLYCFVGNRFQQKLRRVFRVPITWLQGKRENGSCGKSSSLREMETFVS
Procedure: Interaction of the compounds according to the invention with the type 2 angiotensin II receptor (AT2) on membrane fractions of bovine cerebellum
For the test, the AT2 receptor "Drug Discovery System" of NEN DuPont (Catalogue No. NED-001) is used. The test is carried out correspondingly using the test protocol additionally supplied. Receptor binding is carried out in a test volume of 235 μl, which in detail contains ^125 I-angiotensin II (about 0.1 nM), Test buffer (PBS, NaCl, EDTA, PMSF, DTT, DMSO) and the substances to be investigated. After an incubation of 60 min at 37° C., the unbound radioactivity of the samples is separated by means of moistened glass fibre filters (Whatman GF/C) and the bound radioactivity is measured […] in a scintillation cocktail after washing the protein with ice-cold buffer solution (0.9% strength NaCl). The analysis of the raw data was carried out using computer programs for the IC50 or Ki value determination (IC50 value: concentration at which the substance to be investigated causes a 50% inhibition of the specific binding of the radioligand: Ki value: IC50 value corrected for the radioactivity used).

[3] = system: smooth muscle cells from rats' aortas; experiment: Inhibition of proliferation of smooth muscle cells (3H-thymidine incorporation); assay type: cell-based; details: 10^-6 M, rat aortic smooth muscle cells, 10% FCS
Procedure: Investigation of the inhibition of proliferation of smooth muscle cells by the compounds according to the invention
To determine the antiproliferative action of the compounds, smooth muscle cells are used that have been obtained from rats' aortas by the media explant technique [R. Ross, J. Cell. Biol. 50. 172, 1971]. The cells are innoculated into suitable culture dishes (as a rule 96-hole plates, and cultured at 37° C. for 2-3 days in medium containing added serum, 2 mM L-glutamine and 15 mM HEPES, pH 7.4, in 5% CO2. The cells are then synchronised by withdrawal of serum for 2-3 days and then stimulated into growth by serum or other factors. Test desired compounds are added simultaneously. After 16-20 hours, 1 μCi of ^3 H-thymidine is added, and after a further 4 hours, the incorporation of this substance into the TCA-precipitable DNA of the cells is determined.

[4] = target: T2, angiotensin II receptor on membrane fractions of adrenal gland cortex (bovine) (Bos taurus, UniProt P25104); experiment: Interaction with the angiotensin II receptor on membrane fractions of adrenal gland cortex (bovine), 3H-angiotensin II binding; details: 3H-angiotensin II 3-5 nM, 60 min, room temperature
T2 construct: partially purified membrane fractions of bovine AGC using radioactive angiotensin II; from tissue; host or cells: bovine adrenal gland cortex, partially purified membrane fractions
T2 sequence (P25104 1-359): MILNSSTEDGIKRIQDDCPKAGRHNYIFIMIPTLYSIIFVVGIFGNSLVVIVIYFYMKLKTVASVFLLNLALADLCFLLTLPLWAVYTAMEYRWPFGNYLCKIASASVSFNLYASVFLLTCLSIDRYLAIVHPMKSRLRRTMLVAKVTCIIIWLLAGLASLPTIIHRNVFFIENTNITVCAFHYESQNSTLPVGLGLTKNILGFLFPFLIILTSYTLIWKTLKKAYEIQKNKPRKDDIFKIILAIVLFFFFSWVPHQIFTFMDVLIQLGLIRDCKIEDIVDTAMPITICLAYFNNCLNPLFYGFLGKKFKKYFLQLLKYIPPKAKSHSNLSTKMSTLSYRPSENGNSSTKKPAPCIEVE
Description: Interaction of the compounds according to the invention with the angiotensin II receptor on membrane fractions of adrenal gland cortex (bovine)
Bovine adrenal gland cortices (AGC) which have been freshly removed and carefully freed from gland medulla are comminuted in sucrose solution (0.32M) with the aid of an Ultra-turrax (Janke & Kunkel, Staufen I. B.) to give a coarse membrane homogenate and are partially purified to give membrane fractions in two centrifugation steps. The receptor binding investigations are carried out on partially purified membrane fractions of bovine AGC using radioactive angiotensin II in an assay volume of 0.25 ml which, in detail, contains the partially purified membranes (50-80 μg) ^3 H-angiotensin II (3-5 nM), test buffer solution (50 mM tris, pH 7.2), 5 mM MgCl2 and the substances to be investigated. After an incubation time of 60 min at room temperature, the unbound radioactivity of the samples is separated by means of moistened glass fibre filters (Whatman GF/C) and the bound radioactivity is measured […] in a scintillation cocktail after washing the protein with ice-cold buffer solution (50 mM tris/HCl, pH 7.4, 5% PEG 6000). […]

Row | Structure (SMILES) | IC50 against contractions induced by angiotensin II [1] [µg/mL] | Ki [4] [nM] | further results
1 | CCCCc1nc(Cl)c(/C=C(\CC2CCCCC2)C(=O)O)n1Cc1ccc(C(C(=O)O)C2CCCC2)cc1 (racemic) [Example 4] | 0.063 (≈ 0.116 µM) |  | Ki [2]: 827 nM
2 | CCCCc1nc(Cl)c(/C=C(\CC2CCCCC2)C(=O)OC)n1Cc1ccc(C(C(=O)N[C@H](CO)c2ccccc2)C2CCCC2)cc1 (stereo partly drawn) [Example 5, (E)-2-[4-{2-n-Butyl-4-chloro-5-(3-cyclohexyl-2-methoxyarbonyl-prop-1-en-yl)-1H-imidazol-1-methyl}phenyl]-2-cyclopentyl-acetic acid L-phenylglycinolamide] |  |  | inhibition at 1 µM [3]: 90%
3 | CCCCc1nc(Cl)c(/C=C(\CC2CCCCC2)C(=O)OC)n1Cc1ccc(C(C(=O)NS(=O)(=O)c2ccc(C)cc2)C2CCCC2)cc1 (stereo not shown) [Example 6, (E)-N-4-Toluenesulphonyl-2-[4-{2-n-butyl-4-chloro-5-(3-cyclohexyl-2-methoxycarbonyl-prop-1-en-yl)-1H-imidazol-1-yl-methyl}phenyl]-2-cyclopentyl-acetamide] |  | 750 | 
4 | CCCCc1nc(Cl)c(/C=C(\CC2CCCCC2)C(=O)O)n1Cc1ccc(C(C(=O)NS(=O)(=O)c2ccc(C)cc2)C2CCCC2)cc1 (stereo not shown) [Example 7] | 0.051 (≈ 0.0735 µM) |  | 
5 | CCCCc1nc(Cl)c(/C=C(\CC2CCCCC2)C(=O)O)n1Cc1ccc(C(C(=O)N[C@H](CO)c2ccccc2)C2CCCC2)cc1 (stereo partly shown) [Example 8] |  | 80 | 
6 | CCCCc1nc(Cl)c(/C=C(\CC2CCCCC2)C(=O)O)n1Cc1ccc(C(C(=O)O)C2CCCCCC2)cc1 (stereo not shown) [Example 12] | 0.046 (≈ 0.0808 µM) |  | 
